Results on 2 substances are retold here after patent US20200131249A1, “NOVEL PROTEINS AND USE THEREOF” (EVOLVERITAS KFT., priority 2017, published 2020).

Where no end group is shown, it is not given here.

One assay deals with thrombin. The experiment in a line: Thrombin time (TT) in human plasma. Here is the method:
(§1) Blood coagulation measurements using blood plasma taken from healthy human individuals were also performed. From the blood obtained through venipuncture and treated with sodium citrate (3.8% wt/vol) the plasma was isolated by centrifugation (2,000 g, 15 minutes, Jouan CR412 centrifuge).
(§2) The effect of the protein variants of the present invention on the blood coagulation process was tested in three standard assays, the thrombin time, testing any direct effects on thrombin; prothrombin time, testing any effects on the extrinsic pathway; and the activated partial thromboplastin time, testing any effects on the intrinsic pathway. Blood was collected from a healthy individual by vein puncture after informed consent. The blood was treated with sodium-citrate (3.8% w/v) and centrifuged. All three assays were performed on the automated instrument Sysmex CA-1500 (Sysmex) with Innovin reagent (Dale Behring, Marburg, Germany).
(§3) The inhibitors were applied in a fivefold serial dilution with the highest final concentration being 36 μM. This value is 3-4 orders of magnitudes higher than the KI values of the three protein variants of the present invention on human MASP-2. Even at the highest concentration the protein variants of the present invention have only little effect in the APTT test and no effect in the PT and TT tests.

Another assay deals with intrinsic pathway. The assay can be described thus: Activated partial thromboplastin time (APTT) in human plasma. Here is the method: as §1, §2, §3
The next assay deals with extrinsic pathway. The experiment in a line: Prothrombin time (PT) in human plasma. Here is the method:
as §1, §2, §3

The next assay concerns lectin pathway. The assay can be described thus: Lectin pathway activation tests in rat serum, all three assays (C3, C4, C5b-9 deposition). Type of assay: biochemical. As to conditions: result in words. Here is the method: ELISA-based complement lectin pathway activation tests were performed on mannan coated plates using diluted individual (not pooled) rat serum. In these tests, inhibitory efficiencies of the protein of SEQ ID NO: 14 and SGMI-2 were compared. Three different assays were conducted that detect the deposition of C3, C4 or the terminal complement antigen C5b-9, respectively.
96-well Greiner high binding ELISA plates (cat. no. 655061) were coated with 100 μl/well 10 μg/ml mannan dissolved in coating buffer (50 mM sodium-carbonate pH 9.6) overnight at 4° C. Control wells contained coating buffer alone. Wells were blocked for at least 1 h at 37° C. with 200 μl/well
10 mg/ml bovine serum albumin (BSA) dissolved in 50 mM Tris pH 7.4, 150 mM NaCl, 0.1% Tween-20 buffer. Serial dilutions of the inhibitors were made in 10 mM HEPES pH 7.4, 150 mM NaCl, 5 mM CaCl2, 5 mM MgCl2, 0.1% Tween-20 buffer (serum dilution buffer). Rat serum was thawed on ice and diluted 35-fold in serum dilution buffer. […]
50 mM Tris pH 7.4, 150 mM NaCl, 5 mM CaCl2, 0.1% Tween-20 buffer (washing buffer) and 100 μl of the serum-inhibitor samples were transferred onto the plate. […] The 490 nm absorbance values were recorded using a PerkinElmer EnSpire multimode plate reader. Four parallels were measured for each data point. […]

The next assay concerns the target T1, human MASP-3 (Homo sapiens, UniProt P48740).
T1 construct: catalytic enzyme fragments containing the three C-terminal domains: CCP1-CCP2-SP
T1 sequence (P48740 450-728 isoform P48740-2 limits assumed): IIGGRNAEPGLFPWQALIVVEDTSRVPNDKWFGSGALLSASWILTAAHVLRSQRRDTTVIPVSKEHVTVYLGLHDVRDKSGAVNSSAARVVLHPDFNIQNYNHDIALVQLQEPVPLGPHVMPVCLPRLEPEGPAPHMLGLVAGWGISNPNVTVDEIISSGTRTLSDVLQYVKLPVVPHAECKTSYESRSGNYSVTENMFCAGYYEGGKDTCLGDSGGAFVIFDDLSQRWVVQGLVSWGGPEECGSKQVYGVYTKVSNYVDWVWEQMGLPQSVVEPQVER
As to conditions: Data from Héja et al. 2012a; cited from earlier work.

The target in the next assay is MASP-2 (Homo sapiens, UniProt O00187). The arrangement: catalytic enzyme fragments containing the three C-terminal domains: CCP1-CCP2-SP; made in house; inclusion bodies, renatured. Particulars: Data from Héja et al. 2012b; cited from earlier work.
Sequence of MASP-2 (O00187 445-686 limits assumed): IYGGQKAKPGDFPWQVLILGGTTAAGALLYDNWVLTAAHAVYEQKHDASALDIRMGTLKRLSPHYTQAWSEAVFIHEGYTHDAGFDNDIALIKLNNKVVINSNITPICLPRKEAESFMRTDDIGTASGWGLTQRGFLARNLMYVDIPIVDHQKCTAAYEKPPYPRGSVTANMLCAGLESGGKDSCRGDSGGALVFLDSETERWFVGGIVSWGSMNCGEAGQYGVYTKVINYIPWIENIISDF
Sequence of MASP-2 (O00187 287-444 partner limits assumed): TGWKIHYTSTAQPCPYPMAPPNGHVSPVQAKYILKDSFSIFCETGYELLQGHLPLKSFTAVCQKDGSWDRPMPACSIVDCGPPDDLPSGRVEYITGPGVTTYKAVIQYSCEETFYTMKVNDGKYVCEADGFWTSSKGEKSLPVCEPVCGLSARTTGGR

For “SEQ ID NO: 14: TFPI-D2 variant protein with inhibitor loop PCRAVKR (SEQ ID NO: 4) (KPDFCFLEEDPGPCRAVKRRYFYNNQTKQCERFKYGGCLGNMNNFETLEECKNICEDG; ends and bridges not checked; cysteine pairing not given here)”, the TT is given as 16.5 s in the assay with thrombin (inhibitor 0.1 μM); 16.6 s in the assay on thrombin (inhibitor 0.3 μM); 16.7 s in the assay on thrombin (inhibitor 1.4 μM); 16.2 s with thrombin (inhibitor 7.2 μM); 15.5 s in the assay with thrombin (inhibitor 36.0 μM). In addition, the APTT is given as 36.1 s with intrinsic pathway (inhibitor 0.1 μM); 36.8 s with intrinsic pathway (inhibitor 0.3 μM); 37.9 s with intrinsic pathway (inhibitor 1.4 μM); 40.2 s with intrinsic pathway (inhibitor 7.2 μM); 46.4 s in the assay on intrinsic pathway (inhibitor 36.0 μM). Further, the PT is reported as 10.8 s in the assay with extrinsic pathway (inhibitor 0.1 μM); 10.7 s in the assay on extrinsic pathway (inhibitor 0.3 μM); 10.8 s with extrinsic pathway (inhibitor 1.4 μM); 10.9 s with extrinsic pathway (inhibitor 7.2 μM); 11.3 s with extrinsic pathway (inhibitor 36.0 μM). The “inhibition of the lectin pathway in rat serum” value with lectin pathway is “completely inhibit”.
What is called Ki is a dissociation constant, usually derived from enzyme kinetics or from competition with a known ligand. In the case of “SGMI-2 (GSGEVTCEPGTTFKDKCNTCRCGSDGKSAVCTKLWCNQ; Synthetic protein of insect origin) [reference compound]”, the results for the inhibition constant Ki with human MASP-3 and with MASP-2 were approximately 5000 nM and 6 nM, respectively. In addition, the “inhibition of the lectin pathway in rat serum” value in the assay with lectin pathway is listed as “completely inhibit”.
